Publication PMC6338774 (Scientific Reports, 2019)

Legend:
[1] = tested on: human promyelocytic leukemia HL-60 cells; test: WST-1 cell proliferation assay, HL-60 cells; assay type: cell-based; conditions: WST-1, 72 h; for IC50: concentrations 50-200 µM, mean ± SD, na = not active in range tested
Method: (§1) Human promyelocytic leukemia HL-60 cells and human colon cancer cell line Caco-2 were obtained from the American Type Culture Collection (Manassas, VA, USA). […] (Institute of Biotechnology, Faculty of Environment and Natural Sciences, Brandenburg University of Technology Cottbus-Senftenberg, Senftenberg, Germany)[34] were cultured in DMEM medium supplemented with 10% fetal bovine serum (FBS, Invitrogen, Carlsbad, USA), 2 mM glutamine and antibiotics (complete DMEM). Cells (4 × 10^3/well) were grown for 24 h in 96-well plates (Sarstedt, Germany) in appropriate complete medium at 37 °C and atmosphere containing 5% CO2. […] After indicated periods of time, WST-1 mixture was added to each well, and the cells were cultured for additional 6 h. The absorbance at 450 nm was measured on an EnSpire 2300 Multilabel Reader (Perkin-Elmer, USA), and data were analyzed using the program EnSpire 9.0 (Perkin-Elmer, USA). The experiments were performed in triplicates and repeated at least three times independently.

[2] = tested on: human colon carcinoma Caco-2 cells; test: WST-1 cell proliferation assay, Caco-2 cells; assay type: cell-based; conditions: WST-1, 72 h; for IC50: concentrations 50-200 µM, mean ± SD, na = not active in range tested
Method: as §1

[3] = tested on: porcine epithelial intestinal IPEC-J2 cells; test: WST-1 cell proliferation assay, IPEC-J2 cells; assay type: cell-based; conditions: Sus scrofa, WST-1, 72 h, concentrations 50-200 µM, mean ± SD, na = not active in range tested
Method: as §1, with “independently. Results were presented as mean IC50 (concentration of the tested compound, that inhibits cell proliferation by 50%) ± standard deviation.” for “independently.”

Solubility in DMSO = assay type: physicochemical; conditions: the reason cytotoxicity was not tested

Row | Structure (SMILES) | IC50 [2] | IC50 ([1]; Homo sapiens, HL-60) | IC50 [3] | IC50 ([2]; Homo sapiens, Caco-2) | other results
1 | CCCCCCCCCCCCCCCC(=O)O[C@H](COC(=O)C(C)c1ccc(CC(C)C)cc1)COP(=O)([O-])OCC[N+](C)(C)C (mixture of isomers) [Compound 9, 1-[2′-(4″-Isobutylphenyl)]propanoyl-2-palmitoyl-sn-glycero-3-phosphocholine] | 125 ± 3.87 µM |  |  |  | IC50 [1]: 67.1 ± 10.9 µM
2 | CCCCCCCCCCCCCCCC(=O)O[C@H](COC(=O)C(C)c1ccc2cc(OC)ccc2c1)COP(=O)([O-])OCC[N+](C)(C)C (mixture of isomers) [Compound 10, 1-[2′-(6″-Methoxynaphthalenyl)]propanoyl-2-palmitoyl-sn-glycero-3-phosphocholine] |  |  |  |  | IC50 [1]: 27.1 ± 5.13 µM; concentration up to which non-toxic, Caco-2 cells [2]: ≤ 200 µM
3 | CCCCCCCCCCCCCCCC(=O)OC[C@H](COP(=O)([O-])OCC[N+](C)(C)C)OC(=O)C(C)c1ccc(CC(C)C)cc1 (mixture of isomers) [Compound 12, 1-Palmitoyl-2-[2′-[4″-isobutylphenyl)]propanoyl-sn-glycero-3-phosphocholine] |  | 77.4 ± 18.2 µM | 79.2 ± 7.86 µM | 135 ± 18.2 µM | 
4 | CC(C)Cc1ccc(C(C)C(=O)OC[C@H](COP(=O)([O-])OCC[N+](C)(C)C)OC(=O)C(C)c2ccc(CC(C)C)cc2)cc1 (mixture of isomers) [Compound 15, 1,2-Di-[2′-(4″-isobutylphenyl)]propanoyl-sn-glycero-3-phosphocholine] |  | 64.5 ± 10.4 µM | 83.4 ± 1.51 µM | 81.3 ± 17.3 µM | 
5 | COc1ccc2cc(C(C)C(=O)OC[C@H](COP(=O)([O-])OCC[N+](C)(C)C)OC(=O)C(C)c3ccc4cc(OC)ccc4c3)ccc2c1 (mixture of isomers) [Compound 16, 1,2-Di-[2′-(6″-methoxynaphthalenyl)]propanoyl-sn-glycero-3-phosphocholine] |  | 80.1 ± 10.9 µM | 58.4 ± 5.67 µM | 68.7 ± 18.4 µM | 
6 | CC(C)Cc1ccc(C(C)C(=O)O)cc1 (centres unmarked) [Compound 1, ibuprofen, reference compound] |  | 106 ± 17.4 µM | 155 ± 7.57 µM | 114 ± 10.4 µM | concentration up to which non-toxic, HL-60 cells [1]: ≤ 100 µM
7 | COc1ccc2cc([C@H](C)C(=O)O)ccc2c1 [Compound 2, naproxen, reference compound] |  | 141 ± 8.51 µM | 78.6 ± 15.9 µM |  | 
8 | CC(C)Cc1ccc([C@H](C)C(=O)OC[C@@H](O)COP(=O)([O-])OCC[N+](C)(C)C)cc1 [Compound 7, 1-[2′S-(4″-Isobutylphenyl)]propanoyl-2-hydroxy-sn-glycero-3-phosphocholine] | 122 ± 2.76 µM |  |  |  | concentration up to which non-toxic, HL-60 cells [1]: 200 µM
9 | COc1ccc2cc([C@H](C)C(=O)OC[C@@H](O)COP(=O)([O-])OCC[N+](C)(C)C)ccc2c1 [Compound 8, 1-[2′S-(6″-Methoxynaphthalenyl)]propanoyl-2-hydroxy-sn-glycero-3-phosphocholine] | 115 ± 26.1 µM |  |  |  | 
10 | CCCCCCCCCCCCCCCC(=O)OC[C@H](COP(=O)([O-])OCC[N+](C)(C)C)OC(=O)C(C)c1ccc2cc(OC)ccc2c1 (stereo partly drawn) [Compound 13, 1-Palmitoyl-2-[2′S-(6″-methoxynaphthalenyl)]propanoyl-sn-glycero-3-phosphocholine] |  |  |  |  | solubility in DMSO (Solubility in DMSO): poor solubility
